The results in this text go back to patent US8361970B2, “Growth factor binding molecules” (University of South Florida, priority 2000, dated 2013).

Test [1] addresses EGF (epidermal growth factor) (Homo sapiens, UniProt P01133). Description: Binding to EGF by gel electrophoresis.
Test [2] has as its system PDGF-BB stimulated DNA synthesis in NIH 3T3 cells. The test is classed as cell-based. As to conditions: 3 h. The method, then:
(§1) Starved NIH 3T3 or NIH 3T3 overexpressing IGFR are treated for 16 hours with indicated concentrations of GFB-111 and either 10 ng/ml PDGF or 50 ng/ml IGF-1, respectively, then labeled for 2 hr (NIH 3T3) or 4 hr (IGFR) with ^3H-thymidine. Cells are then washed in PBS, lysed in 0.1N NaOH and spotted onto glass fiber filters. DNA is precipitated with ice cold ethanol then ^3H-thymidine incorporation quantified by scintillation counting.
(§2) The selectivity of PDGF-induced cellular responses, is evaluated by the selectivity of GFB-111 to inhibit growth factor-stimulated DNA synthesis using a [^3H]-thymidine incorporation assay. […] In contrast GFB-111 is ineffective at inhibiting IGF-1-stimulated DNA synthesis at concentrations as high as 100 μM (FIG. 4).

Test [3] has as its system Erk1/Erk2 activation in U87MG tumors. Description: Phosphorylated/activated Erk1/Erk2 in U87MG tumors in vivo. On the set-up: species or system nude mice. The note with it: day 32, 100 and 200 mg per kg. The procedure:
U87MG cells (human glioblastoma) are harvested, resuspended in PBS and injected s.c. into the right and left flank (10×10^6 cells per flank) of 8 week old female nude mice (Charles River, Wilmington, Mass.). When tumors reached about 100 mm^3, animals are dosed i.p. with 0.2 ml once daily. Control animals received a saline vehicle whereas treated animals are injected with GFB-111 (50, 100 or 200 mg/kg/day). The tumor volumes are determined by measuring the length (l) and the width (w) and calculating the volume (V=lw^2/2) as described previously. For detection of phosphorylated/activated Erk1/Erk2 in tumors in vivo, the tumors are extracted 20 min after the last GFB-111 injection on day 32, rinsed and the tissue homogenized in HEPES lysis buffer (30 mM Hepes, pH 7.5, 1% T-X-100, 10% glycerol, 10 mM NaCl, 5 mM MgCl2, 25 mM NaF, 1 mM EGTA, 2 mM Na3VO4, 10 μg/ml trypsin inhibitor, 25 μg/ml leupeptin, 10 μg/ml aprotinin, 2 mM PMSF). The lysates (50-100 μg) are electrophoresed on a 15% SDS-PAGE, transferred to nitrocellulose membranes and immunoblotted, with anti-phospho-p44/p42 MAPK (Thy202/Tyr204).

Test [4] deals with EGF-stimulated EGFR tyrosine phosphorylation and Erk1/Erk2 activation. Description: EGF-stimulated EGFR tyrosine phosphorylation and Erk1/Erk2 activation in NIH 3T3 cells overexpressing EGFR. The test is classed as cell-based. The note with it: GFB-111 at concentrations as high as 100 μM. The method, then:
Starved NIII 3T3 cells (PDGF-BB and PDGF-AA), NIH 3T3 cells overexpressing either EGFR (EGF) or Flk-1 (VEGF) are pre-treated with the indicated concentrations of GFB-111 for 5 minutes before 10 minutes of stimulation with PDGF-BB (10 ng/ml), PDGF-AA (10 ng/ml), EGF (100 ng/ml) and VEGF (50 ng/ml). Cell lysates are run on SDS-PAGE gels, then transferred to nitrocellulose and Western blotted with anti-phosphotyrosine (4G 10) or anti-phosphorylated Erk1/Erk2 (New England Biolabs).

For a further test, the system named is rat glioma C6. Description: Antitumor efficacy, C6 tumor in nude mice. Format: in vivo.
Another test concerns the target T1, IGF-1 (Homo sapiens, UniProt P05019).
T1 construct: host or cells: NIH 3T3 cells transfected with the IGF-1R gene carry the receptor
Description: Inhibition of [125I]-IGF-1 binding to NIH 3T3 cells overexpressing IGF-1R. The note with it: 10 μM. The method, then: NIH 3T3 (PDGF) or NIH 3T3 cells overexpressing either EGFR (EGF), IGFR (IGF) or Flk-1 (VEGF), are incubated with [^125I]-PDGF, [^125I]-EGF, [^125I]-IGF or [^125I]-VEGF, respectively (50,000 cpm per well) and increasing concentrations of GFB-111 or GFB-116. Cells are incubated at 4° C. for 1-3 h. After discarding media, the cells are washed 3 times with PBS and three times with Tris 25 mM pH 8.0, 1% T-X-100, 10% glycerol, 1% SDS. Lysates plus wash are counted. Excess of cold growth factors is used to obtain non-specific binding levels.
Whether GFB 111 can block [^125I]-PDGF-BB specific binding in NIH 3T3 cells is determined by pre-treatment of the PDGF-BB with increasing concentrations of GFB-111. FIG. 2C illustrates that in the absence of GFB-111, [^125I]-PDGF-BB is bound by NIH3T3 cells. However, pre-treatment with increasing concentrations of GFB-111, results in a concentration-dependent decrease in PDGF-BB binding.

The test system of test [5] is IGF-1-stimulated DNA synthesis. Description: IGF-1-stimulated DNA synthesis ([3H]-thymidine incorporation) in NIH 3T3 overexpressing IGFR. Format: cell-based. As to conditions: concentrations as high as 100 μM. The method, then: as §1, §2

Values joined by “and” are separate entries in the source; they are usually repeats but may differ in a detail not shown here. Identical values can stand only once.

T1 sequence (P05019 49-118 limits assumed, species assumed): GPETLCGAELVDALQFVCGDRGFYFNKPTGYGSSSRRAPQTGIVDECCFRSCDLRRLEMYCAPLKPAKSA
Sequence of EGF (epidermal growth factor) (P01133 971-1023 limits assumed, species assumed): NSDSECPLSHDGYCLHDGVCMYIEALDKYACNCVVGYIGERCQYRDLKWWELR

With `CCCCOc1c2cc(C(=O)Nc3cc4cc(c3)C(=O)NCC(=O)N[C@@H](CC(=O)O)C(=O)NCC(=O)N[C@@H](Cc3ccc(O)cc3)C(=O)NC4)cc1Cc1cc(C(=O)Nc3cc4cc(c3)C(=O)NCC(=O)N[C@@H](CC(=O)O)C(=O)NCC(=O)N[C@@H](Cc3ccc(O)cc3)C(=O)NC4)cc(c1OCCCC)Cc1cc(C(=O)Nc3cc4cc(c3)C(=O)NCC(=O)N[C@@H](CC(=O)O)C(=O)NCC(=O)N[C@@H](Cc3ccc(O)cc3)C(=O)NC4)cc(c1OCCCC)Cc1cc(C(=O)Nc3cc4cc(c3)C(=O)NCC(=O)N[C@@H](CC(=O)O)C(=O)NCC(=O)N[C@@H](Cc3ccc(O)cc3)C(=O)NC4)cc(c1OCCCC)C2` [GFB-111], the “Binding to EGF” value in test [1] is recorded as “does not bind”. The same molecule returned an IC50 in test [2] of 6.5 µM. The “Erk1/Erk2 activation in the tumors” value in test [3] is given as “blocked”. In addition, the “Effect on EGF-stimulated EGFR tyrosine phosphorylation and Erk1/Erk2 activation” value in test [4] is listed as “does not affect”. The “% Tumor growth inhibition” value in the test with rat glioma C6 (C6, 50 mpk, day in parentheses in cell) is 54% (15) and 64% (15) and 46% (18). In the test with rat glioma C6 (mouse, in vivo), the “Inhibition of C6 tumor growth in nude mice” value is listed as “effective”. Also, the “Effect on [125I]-IGF-1 binding” value on IGF-1 is recorded as “lack of significant effects”. Moreover, the “Inhibition of IGF-1-stimulated DNA synthesis” value in test [5] is on record as “ineffective”.

As a reminder, the IC50 is the concentration at which inhibition is half-maximal.
